Reference: patent publication US8785459B2, “Quinazoline compounds as kinase inhibitors” (Development Center for Biotechnology, priority 2011, dated 2014)
One block for each compound: values may come before it.

Assays:
B-Raf (V600E) = B-Raf (V600E) (Homo sapiens (Human), UniProt P15056, V600E); test: Raf kinase assay (B-Raf (V600E)), [33P] incorporation into MEK1(K97R); format: biochemical
In short: (§1)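 Recombinant C-Raf (2 ng) or B-Raf or B-Raf V600E (5 ng each) phosphorylated 500 ng MEK1(K97R) with 8 μM ATP plus [33P]ATP, pH 7.5, 30 min at 30 °C. Filter-captured 33P counted. IC50 from 3-fold compound dilutions run in duplicate.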

A549 = test: Anti-proliferative activity, CellTiter-96 assay, A549; format: cell-based; conditions: Homo sapiens, A549 cells, 72 hours incubation
Experimental: (§2) Antiproliferative Activity
(§3) The anti-proliferative activities of the compounds with formula (I) and formula (II) with respect to four human cancer cell lines (A549, A375, MDA-MB-231, and COLO205) were measured using the CellTiter™-96 assay kit (Promega) following the manufacturer's instructions. In brief, the cells were maintained in DMEM containing 10% FCS and incubated at 37° C. in 5% CO2 atmosphere. Cells were plated at a density of 2000 cells/well of a 96-well plate for 24 h, then treated with different concentrations of the compounds, and incubated for another 72 hours. At the end of the incubation, CellTiter™-96 Aqueous One Solution Reagent (Promega) was added and incubated for another 4.0 hours. Cell viability was determined by measuring absorbance at 490 nm using EMax® microplate reader (Molecular Devices). Data were processed and analyzed using GraphPad Prism version 4.

C-Raf = C-Raf (Homo sapiens (Human), UniProt P04049); test: Raf kinase assay (C-Raf), [33P] incorporation into MEK1(K97R); format: biochemical
In short: as §1

B-Raf = B-Raf (Homo sapiens (Human), UniProt P15056); test: Raf kinase assay (B-Raf), [33P] incorporation into MEK1(K97R); format: biochemical; conditions: for inhibition at 1 µM: 1.0 μM compound, read-out: B-Raf inhibition at 1.0 μM
In short: as §1

A375 = test: Anti-proliferative activity, CellTiter-96 assay, A375; format: cell-based; conditions: Homo sapiens, A-375, A375 cells, 72 hours incubation
Experimental: as §2, §3

COLO205 = test: Anti-proliferative activity, CellTiter-96 assay, COLO205; format: cell-based; conditions: Homo sapiens, COLO 205, COLO205 cells, 72 hours incubation
Experimental: as §2, §3

MDA-MB-231 = test: Anti-proliferative activity, CellTiter-96 assay, MDA-MB-231; format: cell-based; conditions: Homo sapiens, MDA-MB-231 cells, 72 hours incubation
Experimental: as §2, §3

Chain of B-Raf (V600E) (P15056 whole entry V600E): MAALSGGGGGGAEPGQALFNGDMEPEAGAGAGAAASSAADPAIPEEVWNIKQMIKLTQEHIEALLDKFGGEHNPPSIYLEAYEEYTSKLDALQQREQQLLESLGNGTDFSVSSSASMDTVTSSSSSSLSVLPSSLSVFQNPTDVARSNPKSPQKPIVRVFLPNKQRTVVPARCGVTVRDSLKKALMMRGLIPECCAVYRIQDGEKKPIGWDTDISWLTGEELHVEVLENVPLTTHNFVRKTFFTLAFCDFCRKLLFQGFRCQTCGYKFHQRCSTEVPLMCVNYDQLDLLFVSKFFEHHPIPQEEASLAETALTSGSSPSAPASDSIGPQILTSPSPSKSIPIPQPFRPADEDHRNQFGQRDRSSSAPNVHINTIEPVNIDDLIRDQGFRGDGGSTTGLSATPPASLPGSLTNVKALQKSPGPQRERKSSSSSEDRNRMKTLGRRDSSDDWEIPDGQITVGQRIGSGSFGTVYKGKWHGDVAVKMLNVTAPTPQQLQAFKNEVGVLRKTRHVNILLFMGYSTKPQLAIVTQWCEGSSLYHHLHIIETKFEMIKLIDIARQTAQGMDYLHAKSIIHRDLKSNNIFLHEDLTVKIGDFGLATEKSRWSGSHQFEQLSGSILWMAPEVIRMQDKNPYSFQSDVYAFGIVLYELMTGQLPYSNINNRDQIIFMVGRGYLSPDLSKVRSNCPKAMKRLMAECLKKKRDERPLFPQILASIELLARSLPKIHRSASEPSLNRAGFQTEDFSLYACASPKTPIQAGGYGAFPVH
Chain of B-Raf (P15056 whole entry): as the sequence (P15056 whole entry V600E) above, with E600V counted along it
Chain of C-Raf (P04049 whole entry): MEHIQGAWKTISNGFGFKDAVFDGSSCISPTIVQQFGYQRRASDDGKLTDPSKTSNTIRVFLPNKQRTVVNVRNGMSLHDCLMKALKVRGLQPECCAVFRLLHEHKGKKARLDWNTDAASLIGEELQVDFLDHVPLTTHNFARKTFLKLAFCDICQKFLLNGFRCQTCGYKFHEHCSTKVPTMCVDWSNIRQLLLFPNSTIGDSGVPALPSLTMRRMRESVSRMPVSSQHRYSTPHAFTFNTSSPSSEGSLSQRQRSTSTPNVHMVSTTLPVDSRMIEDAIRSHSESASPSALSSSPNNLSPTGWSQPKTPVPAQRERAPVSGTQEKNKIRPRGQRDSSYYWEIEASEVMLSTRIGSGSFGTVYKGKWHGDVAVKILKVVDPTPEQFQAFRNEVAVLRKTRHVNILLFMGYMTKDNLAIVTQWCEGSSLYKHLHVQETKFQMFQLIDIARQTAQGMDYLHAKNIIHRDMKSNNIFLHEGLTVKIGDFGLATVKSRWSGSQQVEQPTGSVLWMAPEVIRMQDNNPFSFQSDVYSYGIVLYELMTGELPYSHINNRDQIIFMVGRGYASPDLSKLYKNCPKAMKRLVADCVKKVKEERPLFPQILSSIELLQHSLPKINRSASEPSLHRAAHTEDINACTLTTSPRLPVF

SMILES: COc1cc(-c2ccc3ncnc(Nc4cccc5[nH]nc(Cl)c45)c3c2)ccc1O [Compound 126, 4-(4-(3-chloro-1H-indazol-4-ylamino)quinazolin-6-yl)-2-methoxyphenol]
- IC50 (B-Raf (V600E)): 162 nM
- IC50 (A549): 2700 ± 1700 nM
- IC50 (C-Raf): 287 nM
- IC50 (B-Raf): 142 nM
- inhibition at 1 µM (B-Raf): 83.6%
- IC50 (A375): 2900 ± 1600 nM
- IC50 (COLO205): 16800 ± 9300 nM
- IC50 (MDA-MB-231): 2400 ± 1100 nM

SMILES: Oc1cccc(Nc2ncnc3ccc(-c4ccccc4)cc23)c1 [Compound 133, 3-(6-phenylquinazolin-4-ylamino)phenol]
- IC50 (B-Raf (V600E)): 254 nM
- IC50 (A549): 9300 ± 1300 nM
- IC50 (C-Raf): 6640 nM
- IC50 (B-Raf): 168 nM
- inhibition at 1 µM (B-Raf): 85.8%
- IC50 (A375): 6000 ± 1000 nM
- IC50 (COLO205): 11500 ± 800 nM
- IC50 (MDA-MB-231): 33800 ± 6900 nM

SMILES: COc1cc(-c2ccc3ncnc(Nc4cc(O)ccc4C)c3c2)ccc1O [Compound 154, 4-(4-(5-hydroxy-2-methylphenylamino)quinazolin-6-yl)-2-methoxyphenol]
- IC50 (B-Raf (V600E)): 70.9 nM
- IC50 (A549): 900 ± 500 nM
- IC50 (C-Raf): 590 nM
- IC50 (B-Raf): 60 nM
- inhibition at 1 µM (B-Raf): 88.4%
- IC50 (A375): 1000 ± 200 nM
- IC50 (COLO205): 6400 ± 600 nM
- IC50 (MDA-MB-231): 1000 ± 100 nM

SMILES: COc1cc(-c2ccc3ncnc(Nc4cc(O)c(C)cc4F)c3c2)ccc1O [Compound 156, 4-fluoro-5-(6-(4-hydroxy-3-methoxyphenyl)quinazolin-4-ylamino)-2-methylphenol]
- IC50 (B-Raf (V600E)): 81.7 nM
- IC50 (A549): 1600 ± 400 nM
- IC50 (C-Raf): 301 nM
- IC50 (B-Raf): 57.3 nM
- inhibition at 1 µM (B-Raf): 92.4%
- IC50 (A375): 1900 ± 300 nM
- IC50 (COLO205): 9600 ± 3800 nM
- IC50 (MDA-MB-231): 2800 ± 200 nM

SMILES: COc1cc(-c2ccc3ncnc(Nc4ccc(Cl)c(O)c4)c3c2)ccc1O [Compound 157, 4-(4-(4-chloro-3-hydroxyphenylamino)quinazolin-6-yl)-2-methoxyphenol]
- IC50 (B-Raf (V600E)): 37.5 nM
- IC50 (A549): 2500 ± 800 nM
- IC50 (C-Raf): 161 nM
- IC50 (B-Raf): 26.8 nM
- inhibition at 1 µM (B-Raf): 92%
- IC50 (A375): 2900 ± 600 nM
- IC50 (COLO205): 7800 nM
- IC50 (MDA-MB-231): 4700 ± 300 nM

SMILES: COc1cc(-c2ccc3ncnc(Nc4cc(O)c(F)cc4F)c3c2)ccc1O [Compound 158, 2,4-difluoro-5-(6-(4-hydroxy-3-methoxyphenyl)quinazolin-4-ylamino)phenol]
- IC50 (B-Raf (V600E)): 7.1 nM
- IC50 (A549): 900 ± 400 nM
- IC50 (C-Raf): 36.3 nM
- IC50 (B-Raf): 3.8 nM
- inhibition at 1 µM (B-Raf): 96.4%
- IC50 (A375): 400 ± 100 nM
- IC50 (COLO205): 5100 ± 1000 nM
- IC50 (MDA-MB-231): 1200 ± 100 nM

SMILES: COc1cc(-c2ccc3ncnc(Nc4cc(O)c(Cl)cc4F)c3c2)ccc1O [Compound 159, 2-chloro-4-fluoro-5-(6-(4-hydroxy-3-methoxyphenyl)quinazolin-4-ylamino)phenol]
- IC50 (B-Raf (V600E)): 19.7 nM
- IC50 (A549): 2900 ± 400 nM
- IC50 (C-Raf): 69.2 nM
- IC50 (B-Raf): 11.1 nM
- inhibition at 1 µM (B-Raf): 97.4%
- IC50 (A375): 2300 ± 500 nM
- IC50 (COLO205): 7900 ± 1900 nM
- IC50 (MDA-MB-231): 4300 ± 600 nM

SMILES: Oc1cc(Nc2ncnc3ccc(-c4ccc(Cl)cc4)cc23)c(F)cc1F [Compound 160, 5-(6-(4-chlorophenyl)quinazolin-4-ylamino)-2,4-difluorophenol]
- IC50 (B-Raf (V600E)): 19 nM
- IC50 (A549): > 30000 nM
- IC50 (C-Raf): 147 nM
- IC50 (B-Raf): 8.9 nM
- inhibition at 1 µM (B-Raf): 97.9%
- IC50 (A375): 8200 ± 1300 nM
- IC50 (COLO205): 20900 ± 12600 nM
- IC50 (MDA-MB-231): > 30000 nM

SMILES: COc1cc(-c2ccc3ncnc(Nc4ccc(F)c(O)c4)c3c2)ccc1O [Compound 161, 4-(4-(4-fluoro-3-hydroxyphenylamino)quinazolin-6-yl)-2-methoxyphenol]
- IC50 (B-Raf (V600E)): 23.4 nM
- IC50 (A549): 1500 ± 300 nM
- IC50 (C-Raf): 133 nM
- IC50 (B-Raf): 16.9 nM
- inhibition at 1 µM (B-Raf): 94.7%
- IC50 (A375): 1000 ± 100 nM
- IC50 (COLO205): 5200 ± 1800 nM
- IC50 (MDA-MB-231): 2100 ± 500 nM

SMILES: COc1cc(-c2ccc3ncnc(Nc4ccc(F)c(O)c4F)c3c2)ccc1O [Compound 162, 2,6-difluoro-3-(6-(4-hydroxy-3-methoxyphenyl)quinazolin-4-ylamino)phenol]
- IC50 (B-Raf (V600E)): 4.5 nM
- IC50 (A549): 2400 ± 700 nM
- IC50 (C-Raf): 197 nM
- IC50 (B-Raf): 2.9 nM
- inhibition at 1 µM (B-Raf): 94.6%
- IC50 (A375): 1500 ± 100 nM
- IC50 (COLO205): 5100 ± 1400 nM
- IC50 (MDA-MB-231): 2100 ± 100 nM

SMILES: Oc1c(F)ccc(Nc2ncnc3ccc(-c4ccc5[nH]ncc5c4)cc23)c1F [Compound 163, 3-(6-(1H-indazol-5-yl)quinazolin-4-ylamino)-2,6-difluorophenol]
- IC50 (B-Raf (V600E)): 4.5 nM
- IC50 (A549): 26000 ± 3200 nM
- IC50 (C-Raf): 256 nM
- IC50 (B-Raf): 2.4 nM
- inhibition at 1 µM (B-Raf): 94.2%
- IC50 (A375): 4100 ± 700 nM
- IC50 (COLO205): 15700 ± 2000 nM
- IC50 (MDA-MB-231): 17800 ± 200 nM

Results, then the compound that gave them:

- IC50 (B-Raf (V600E)): 117 nM
- IC50 (A549): 6400 ± 700 nM
- IC50 (C-Raf): 233 nM
- IC50 (B-Raf): 99.6 nM
- inhibition at 1 µM (B-Raf): 88.4%
- IC50 (A375): 5400 ± 700 nM
- IC50 (COLO205): 6300 ± 200 nM
- IC50 (MDA-MB-231): 6200 ± 400 nM
SMILES: COc1ccc(-c2ccc3nccc(Nc4cccc5[nH]ncc45)c3c2)cc1C=O [Compound 116, 5-(4-(1H-indazol-4-ylamino)quinolin-6-yl)-2-methoxybenzaldehyde]

- IC50 (B-Raf (V600E)): 114 nM
- IC50 (A549): 23500 ± 500 nM
- IC50 (C-Raf): 321 nM
- IC50 (B-Raf): 107 nM
- inhibition at 1 µM (B-Raf): 86.6%
- IC50 (A375): 23700 ± 2400 nM
- IC50 (COLO205): 8900 ± 100 nM
- IC50 (MDA-MB-231): 13600 ± 900 nM
SMILES: NC(=O)c1cccc(-c2ccc3nccc(Nc4cccc5[nH]ncc45)c3c2)c1 [Compound 117, 3-(4-(1H-indazol-4-ylamino)quinolin-6-yl)benzamide]

- IC50 (B-Raf (V600E)): 119 nM
- IC50 (A549): 12100 ± 3200 nM
- IC50 (C-Raf): 277 nM
- IC50 (B-Raf): 134 nM
- inhibition at 1 µM (B-Raf): 88.2%
- IC50 (A375): 8500 ± 1200 nM
- IC50 (COLO205): 7300 ± 1000 nM
- IC50 (MDA-MB-231): 10900 ± 1400 nM
SMILES: CS(=O)(=O)c1ccc(-c2ccc3nccc(Nc4cccc5[nH]ncc45)c3c2)cc1 [Compound 120, N-(1H-indazol-4-yl)-6-(4-(methylsulfonyl)phenyl)quinolin-4-amine]

- IC50 (B-Raf (V600E)): 185 nM
- IC50 (A549): 6100 ± 600 nM
- IC50 (C-Raf): 409 nM
- IC50 (B-Raf): 188 nM
- inhibition at 1 µM (B-Raf): 82.4%
- IC50 (A375): 7300 ± 600 nM
- IC50 (COLO205): 9600 ± 600 nM
- IC50 (MDA-MB-231): 8500 ± 1400 nM
SMILES: Oc1ccc(-c2ccc3nccc(Nc4cccc5[nH]ncc45)c3c2)cc1 [Compound 124, 4-(4-(1H-indazol-4-ylamino)quinolin-6-yl)phenol]

- IC50 (B-Raf (V600E)): 152 nM
- IC50 (A549): 10800 ± 700 nM
- IC50 (C-Raf): 1330 nM
- IC50 (B-Raf): 149 nM
- inhibition at 1 µM (B-Raf): 78.2%
- IC50 (A375): 23600 ± 1200 nM
- IC50 (COLO205): 8300 ± 400 nM
- IC50 (MDA-MB-231): 19500 ± 2100 nM
SMILES: Nc1ccc(F)c(-c2ccc3nccc(Nc4cccc5[nH]ncc45)c3c2)c1 [Compound 137, 6-(5-amino-2-fluorophenyl)-N-(1H-indazol-4-yl)quinolin-4-amine]
